From patent EP4454666A1, “IN VIVO IMAGING OF AN ALS BIOMARKER AND MEANS THEREFOR” (Société de Commercialisation des Produits de la Recherche …, priority 2023, dated 2024)
Values belong to the molecule of their own block, whether it stands above or below them.

Key:
mSOD1 aggregates = assay: PET imaging of spinal cord mSOD1 aggregates (spots); format: in vivo, mice
Protocol: Under isoflurane anesthesia. […] Imaging days post administration of the radiotracer were optimized as the first results were collected the last groups being imaged only at days 7 and 10. Once the radiotracer administrated, the mouse was placed in its cage to recuperate from anesthesia and returned to the housing facility.
PET imaging was performed on days 7 and 10 following the administration of the radiotracer. Imaging was done on a LabPET-2 PET scanner (https://imagingrt.com/. Bore size: 72 mm. Axial FOV: 50 mm. Transaxial FOV: 60 mm. Spatial resolution: 0.74 mm (Isotropic at 5 mm from center). Detection efficiency (250-650 keV): 3.3% dedicated to small animal imaging. Preparation and PET imaging was done under isoflurane anesthesia delivered through a nose cone (Induction 2-3% isoflurane then 1 - 2.5%. 1-1.5 L of oxygen/min) the level of anesthesia being modulated if required during PET imaging. An ophthalmic gel was applied to the eyes to prevent eye dryness. The mouse was positioned within the field of view of the PET imager and a 30 min static acquisition was performed then the bed of the imager was moved within the CT module of the LabPET8 scanner, and a 2 min CT acquisition was performed. During PET imaging, the mouse was kept warm using pulsed hot air maintained at 32 °C, the environment temperature and respiration rate being monitored throughout the imaging procedure (PCSAM. Model 1025T Monitoring & Gating System, SA Instruments Inc.). Once the imaging procedure was completed, the mouse was placed in its cage to recuperate from anesthesia and returned to the housing facility.
PET data were acquired in list mode and reconstructed on a 200 x 200 x 168 grid with 0.3 x 0.3 x 0.3 mm^3 voxel size using 16 iterations and 8 subset of the 3D Ordered Subset Expectation Maximization (OSEM) algorithm. All PET images were corrected for the physical radionuclide decay of ^89Zr and random coincidences. […]
Once reconstructed the PET images were visually inspected to identify potential mSOD1 aggregates, which appear as discrete radiotracer spots within the spinal cord. […] The criteria for validity were that the spot was well defined within the spinal cord and not contaminated by radioactivity spilled in form the presence of the radiotracer in the anterior portion of the vertebra. […]
Once located region of interest (ROI) was then traced around these spots and the measure radiotracer content corrected for the partial volume effect (PVE) using the recovery coefficient and for spill-in from the presence of free ^89Zr in the anterior part of the vertebra (Fig. 4). […] The radioactivity content of m-SOD1 aggregated was expressed in terms of %ID/g.

denatured human SOD1 [1] = biological target: T1, denatured human SOD1 (human, UniProt P00441 2-154); assay: direct ELISA on denatured human SOD1 (Fig. 6A)
T1 construct: also called misfolded SOD1; mSOD1

denatured human SOD1 [2] = biological target: T1, denatured human SOD1; assay: direct ELISA on denatured human SOD1 (mSOD1)
denatured human SOD1 [3] = biological target: T1, denatured human SOD1; assay: ELISA on misfolded SOD1 (refers to Fig. 6)

T1 sequence (P00441 2-154 limits assumed): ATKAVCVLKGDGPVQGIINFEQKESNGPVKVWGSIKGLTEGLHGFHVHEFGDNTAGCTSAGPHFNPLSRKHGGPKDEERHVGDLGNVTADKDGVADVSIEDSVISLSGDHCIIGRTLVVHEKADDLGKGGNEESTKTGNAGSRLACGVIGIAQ

Molecule: Degly-^89Zr-DFO-AP-101: ^89Zr-DFO-AP-101 in which the AP-101 antibody is deglycosylated
number of detected spots including false positive spots (mSOD1 aggregates; day 7 post administration): 6 spots
number of detected spots including false positive spots (mSOD1 aggregates; day 10 post administration): 12 spots

Molecule: ^89Zr-DFO-AP-101: AP-101 antibody, SCN-Bn-DFO as bifunctional chelator and ^89Zr as radionuclide; PET radiotracer
number of detected spots including false positive spots (mSOD1 aggregates; day 7 post administration): 6 spots
number of detected spots including false positive spots (mSOD1 aggregates; day 10 post administration): 18 spots

B1: AP-101 (antibody, V domains shown)
VH: EVQLVESGAEVKKPGASVTLSCKASGYTFTAYYIHWVRQAREQGLEWMGVINPSTGTTFYAQNFPDRVSVTRDTSTSTVFMELHNLKSEDTAVYYCARAISEHGSGSYSPYYWGQGTLVTVSS
VL: SYVLTQPPSVSVSLGQMAAITCSGEALPKKYGYWYQQKPGQVPVLLIYRDVERPSGVPDRFSGSSSGTMVTLTISGVQAEDEADYYCLSADSSGTWVFGGGTKLTVL
EC50 (denatured human SOD1 [1]): 0.2 nM

Second part, the molecule after the results:

EC50 (denatured human SOD1 [2]): 2.4 nM
B2: Degly-^natZr-DFO-AP-101 (antibody, human IgG1, V domains shown)
VH: B1 VH
VL: B1 VL
modifications: DFO chelator conjugated randomly on lysine residues; Fc N-glycans removed with EndoS2 (GlycINATOR); DFO chelator on lysine residues, average 0.6 DFO per antibody; natZr complexed

EC50 (denatured human SOD1 [3]): 0.5 nM
EC50 (denatured human SOD1 [2]): 0.3 nM
B3: ^natZr-DFO-AP-101 (antibody, human IgG1, V domains shown)
VH: B1 VH
VL: B1 VL
modifications: p-SCN-Bn desferoxamine (DFO) chelator conjugated randomly on lysine residues; p-SCN-Bn desferoxamine (DFO) chelator conjugated randomly on lysine residues, DFO:AP-101 ratio 1.1:1.0; natZr complexed
notes: also called DFO-α-miSOD1
